# Source: patent publication US11377447B2, “Targeted therapeutics” (MADRIGAL PHARMACEUTICALS, INC., priority 2017, dated 2022)
# Experiment: pH of reconstituted and diluted drug product solution
# Type: physicochemical
# Details: lyophilized powder reconstituted with Water for Injection
# Description: This solution is filled to deliver 105 mg/vial into a container closure system consisting of a USP Type 1 clear glass vial, stopper, and overseal. The drug product is stored at 2° C. to 8° C., away from light. Prior to administration the lyophilized powder is reconstituted with Water for Injection and then is further diluted in 0.9% Sodium Chloride Injection, USP to the target concentration prior to use. SDC-TRAP-0063 Sodium may have a concentration of between about 25 to about 50 mg/mL, between about 50 to about 100 mg/mL, between about 100 to about 150 mg/mL, or between about 150 to 200 mg/mL. The drug product is intended for intravenous administration by infusion.
# The reconstituted solution of SDC-TRAP-0063 Sodium has a pH of 10.0. This solution is diluted to the target dose in 0.9% sodium chloride injection, USP. The pH of the infusion solution depends on the concentration of SDC-TRAP-0063 Sodium in the diluted infusion solution. Across the dose ranges employed in the clinical study protocol, the volume of the diluted infusion solution administered will range from 50 to 500 mL, and the pH will range from 8.1 to 9.6. In order to reduce the potential risks of injection site pain and/or damage to the venous endothelium during IV administration, a central venous access line is used for administration of the diluted SDC-TRAP-0063 Sodium.
smiles,measurement,value
"CCc1c2c(nc3ccc(OC(=O)N4CCC(CCn5ccc6cc(-n7c(O)nnc7-c7cc(C(C)C)c(O)cc7O)ccc65)CC4)cc13)-c1cc([C@@](O)(CC)C(=O)[O-])c(CO)c(=O)n1C2.[Na+] [SDC-TRAP-0063 Sodium, Sodium (S)-2-(2-((4-(2-(5-(3-(2,4-dihydroxy-5-isopropylphenyl)-5-hydroxy-4H-1,2,4-triazol-4-yl)-1H-indol-1-yl)ethyl)piperidine-1-carbonyl)oxy)-12-ethyl-8-(hydroxymethyl)-9-oxo-9,11-dihydroindolizino[1,2-b]quinolin-7-yl)-2-hydroxybutanoate]",pH of the reconstituted solution,10.0
